These results are taken from ChEMBL document CHEMBL1134304, “Discovery of novel p-arylthio cinnamides as antagonists of leukocyte function-associated antigen-1/intercellular adhesion molecule-1 interaction. 4. Structure-activity relationship of substituents on the benzene ring of the cinnamide” (J Med Chem, 2001).

The target of test [1] is T1, Integrin alpha-L (Homo sapiens, UniProt P20701).
T1 sequence (P20701 whole entry): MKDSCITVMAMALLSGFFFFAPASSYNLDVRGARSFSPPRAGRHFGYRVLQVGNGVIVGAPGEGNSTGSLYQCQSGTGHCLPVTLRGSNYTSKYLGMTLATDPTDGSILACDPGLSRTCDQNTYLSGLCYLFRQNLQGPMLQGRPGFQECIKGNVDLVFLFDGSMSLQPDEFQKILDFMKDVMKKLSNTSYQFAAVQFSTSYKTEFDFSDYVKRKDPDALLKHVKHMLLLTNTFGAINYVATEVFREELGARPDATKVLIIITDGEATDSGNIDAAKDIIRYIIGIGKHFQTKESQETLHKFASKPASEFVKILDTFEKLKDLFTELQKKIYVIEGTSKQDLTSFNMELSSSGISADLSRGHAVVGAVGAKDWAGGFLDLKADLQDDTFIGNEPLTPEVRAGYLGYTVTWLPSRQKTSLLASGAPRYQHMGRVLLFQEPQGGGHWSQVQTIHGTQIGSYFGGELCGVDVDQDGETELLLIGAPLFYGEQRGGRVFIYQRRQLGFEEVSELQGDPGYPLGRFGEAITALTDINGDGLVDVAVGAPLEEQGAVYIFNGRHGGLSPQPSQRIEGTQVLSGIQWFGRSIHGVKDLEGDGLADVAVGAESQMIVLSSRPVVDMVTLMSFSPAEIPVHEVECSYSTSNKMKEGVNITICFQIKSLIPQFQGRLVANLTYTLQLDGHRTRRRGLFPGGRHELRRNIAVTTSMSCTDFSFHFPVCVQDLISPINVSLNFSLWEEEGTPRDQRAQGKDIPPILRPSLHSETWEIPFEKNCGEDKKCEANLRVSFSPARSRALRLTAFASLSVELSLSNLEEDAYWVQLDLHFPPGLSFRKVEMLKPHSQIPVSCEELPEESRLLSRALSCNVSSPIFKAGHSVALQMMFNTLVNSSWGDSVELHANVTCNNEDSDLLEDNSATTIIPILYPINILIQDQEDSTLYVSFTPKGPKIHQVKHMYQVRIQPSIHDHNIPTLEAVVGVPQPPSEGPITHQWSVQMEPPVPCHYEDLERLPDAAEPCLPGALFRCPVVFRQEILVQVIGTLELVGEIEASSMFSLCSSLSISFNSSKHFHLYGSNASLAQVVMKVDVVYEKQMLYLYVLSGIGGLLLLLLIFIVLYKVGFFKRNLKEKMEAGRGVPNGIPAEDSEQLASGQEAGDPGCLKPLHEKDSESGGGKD

For test [2], the target named is T2, Intercellular adhesion molecule (ICAM-1), Integrin alpha-L/beta-2 (Homo sapiens, UniProt P05107+P20701). Description: Inhibition of LFA-1 mediated JY-8 cell adhesion to ICAM-1, range (6-100). It is filed as functional, cell-based.
T2 sequence (P05362 whole entry, one chain of several, further chain): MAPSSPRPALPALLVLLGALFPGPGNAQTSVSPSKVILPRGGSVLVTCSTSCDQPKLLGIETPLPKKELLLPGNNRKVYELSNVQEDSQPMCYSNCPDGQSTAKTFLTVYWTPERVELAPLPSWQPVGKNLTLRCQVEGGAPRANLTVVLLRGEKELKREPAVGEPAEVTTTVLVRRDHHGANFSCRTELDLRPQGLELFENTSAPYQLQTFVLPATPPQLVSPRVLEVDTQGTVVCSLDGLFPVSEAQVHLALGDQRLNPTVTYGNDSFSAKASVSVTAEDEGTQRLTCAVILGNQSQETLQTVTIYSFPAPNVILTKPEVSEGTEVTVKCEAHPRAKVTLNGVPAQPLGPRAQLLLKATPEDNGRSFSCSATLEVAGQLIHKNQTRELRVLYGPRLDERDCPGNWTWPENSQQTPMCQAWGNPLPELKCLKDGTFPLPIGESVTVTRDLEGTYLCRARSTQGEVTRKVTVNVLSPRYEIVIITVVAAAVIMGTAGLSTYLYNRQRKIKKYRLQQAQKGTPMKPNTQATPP
T2 sequence (P05107 whole entry, one chain of several): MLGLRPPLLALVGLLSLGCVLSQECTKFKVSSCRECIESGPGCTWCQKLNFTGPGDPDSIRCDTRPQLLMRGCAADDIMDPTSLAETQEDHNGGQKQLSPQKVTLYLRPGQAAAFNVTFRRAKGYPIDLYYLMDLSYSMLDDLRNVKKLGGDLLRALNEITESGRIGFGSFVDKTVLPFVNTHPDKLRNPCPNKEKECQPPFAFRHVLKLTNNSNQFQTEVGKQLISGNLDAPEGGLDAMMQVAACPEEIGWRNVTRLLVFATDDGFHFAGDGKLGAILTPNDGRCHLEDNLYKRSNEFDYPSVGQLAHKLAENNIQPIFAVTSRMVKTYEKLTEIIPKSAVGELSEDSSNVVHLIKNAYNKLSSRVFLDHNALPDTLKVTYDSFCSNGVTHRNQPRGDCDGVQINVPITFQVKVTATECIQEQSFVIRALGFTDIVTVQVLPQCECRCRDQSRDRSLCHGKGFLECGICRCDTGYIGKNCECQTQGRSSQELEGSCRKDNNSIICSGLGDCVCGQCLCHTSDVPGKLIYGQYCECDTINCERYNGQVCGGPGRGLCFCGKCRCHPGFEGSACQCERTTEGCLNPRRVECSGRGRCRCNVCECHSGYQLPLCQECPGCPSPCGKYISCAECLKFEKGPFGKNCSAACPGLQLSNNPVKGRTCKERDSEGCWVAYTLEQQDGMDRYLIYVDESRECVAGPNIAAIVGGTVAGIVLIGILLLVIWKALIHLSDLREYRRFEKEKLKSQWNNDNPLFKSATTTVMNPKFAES
The target of test [3] is T1, Integrin alpha-L. The test is described as follows: Inhibition of intercellular adhesion molecule-1 (ICAM-1) binding to recombinant LFA-1, range(130-170).
Test [4] concerns the target T1, Integrin alpha-L. This is another data set of the same source.
Test [5] addresses T2, Intercellular adhesion molecule (ICAM-1), Integrin alpha-L/beta-2.
For test [6] the target is unchanged. The test is described as follows: Inhibition of LFA-1 mediated JY-8 cell adhesion to ICAM-1, range(3-10). It is filed as functional, cell-based.
The target in test [7] is T1, Integrin alpha-L. Description: Inhibition of intercellular adhesion molecule-1 (ICAM-1) binding to recombinant LFA-1, range(5-5).

For orientation: IC50 means the concentration that inhibits the measured activity by half.

Consider `O=C(O)C1CCN(C(=O)/C=C/c2ccc(Sc3ccc4c(c3)OCCO4)c3ccccc23)CC1`, for which, at Integrin alpha-L [1], the 50% inhibitory concentration (IC50) is 295 nM.

In the case of `COc1ccccc1Sc1ccc(/C=C/C(=O)N2CCOCC2)cc1Cl`, the IC50 came out at 40 nM in test [2] and 150 nM at Integrin alpha-L [3].

With `O=C(O)C1CCN(C(=O)/C=C/c2ccc(Sc3ccc4c(c3)OCCO4)c(C(F)(F)F)c2C(F)(F)F)CC1`, the concentration for half-maximal inhibition (IC50) at Integrin alpha-L [4] was 3 nM; in test [5], 0.5 nM.

Consider `Cn1ccc2cc(Sc3ccc(/C=C/C(=O)N4CCC(C(=O)O)CC4)c(C(F)(F)F)c3C(F)(F)F)ccc21`, for which the IC50 (in test [6]; on Integrin alpha-L [7]) was 5 nM in each case.
